Experimental data as given in ChEMBL document CHEMBL1817644, “Rational design of SAM analogues targeting SAM-II riboswitch aptamer” (Bioorg Med Chem Lett, 2011).
Activity calls are given as the source filed them. The calls are words filed in the database; no cut-off is given here.

Experiments:
Type in all cases: nucleic-acid assay
Nucleic Acid [1] = assay: Binding affinity to 2-amino purine labelled SAM2 riboswitch aptamer assessed as change in fluorescence at 5 mM to 10 mM at pH 8.3 by fluorescence binding assay
Nucleic Acid [2] = assay: Ratio of S-adenosylmethionine Kd to compound Kd for SAM2 riboswitch aptamer
Nucleic Acid [3] = assay: Binding affinity to SAM1 riboswitch aptamer assessed as change in heat at 0.5 mM at pH 7.5 by Isothermal titration calorimetry

| SMILES | Activity (Nucleic Acid [1]) | Ratio (Nucleic Acid [2]) | Activity (Nucleic Acid [3]) | Kd (Nucleic Acid [1]) [µM] |
| --- | --- | --- | --- | --- |
| C[S+](CC[C@H](NC(=O)CN)C(=O)O)C[C@H]1O[C@@H](n2cnc3c(N)ncnc32)[C@H](O)[C@@H]1O (stereo not given in full) | inactive |  |  |  |
| C[S+](CC[C@H](NC(=O)CCN)C(=O)O)C[C@H]1O[C@@H](n2cnc3c(N)ncnc32)[C@H](O)[C@@H]1O (stereo not given in full) | inactive |  |  |  |
| CN1/C(=C\c2cc[n+](CCCC(=O)N[C@@H](CC[S+](C)C[C@H]3O[C@@H](n4cnc5c(N)ncnc54)[C@H](O)[C@@H]3O)C(=O)O)c3ccccc23)Sc2ccccc21 (stereo not given in full) | Active | 2 |  |  |
| C[S+](CC[C@H](N)C(=O)NCCN)C[C@H]1O[C@@H](n2cnc3c(N)ncnc32)[C@H](O)[C@@H]1O (stereo not given in full) |  |  | inactive | 3.1 |
| C[S+](CC[C@H](NC(=O)CNCCN)C(=O)O)C[C@H]1O[C@@H](n2cnc3c(N)ncnc32)[C@H](O)[C@@H]1O (stereo not given in full) | inactive |  |  |  |
| C[S+](CC[C@H](N)C(=O)[O-])C[C@H]1O[C@@H](n2cnc3c(N)ncnc32)[C@H](O)[C@@H]1O (stereo not given in full) [ADEMETIONINE] | Active |  |  | 6 |
| Nc1ncnc2c1ncn2[C@@H]1O[C@H](CSCC[C@H](N)C(=O)O)[C@@H](O)[C@H]1O | inactive |  |  |  |
